Test results taken from patent publication US6465441B2, “Screening method for modulation of human mast cell activation” (Duska Scientific Co., priority 1997, dated 2002).

Experiments:
[1] = test system: human lung mast cells (HLMC); experiment: Histamine release assay, anti-IgE-induced histamine release from purified human lung mast cells; type: cell-based
Method: (§1) Lung fragments were washed with Tyrode's buffer containing (g/l): NaCl, 8.0; KCl, 0.2; NaH2PO4, 0.05; and glucose, 1.0. The buffer was titrated to pH 7.2 by the addition of NaHCO3. Mast cell isolation and elutriation were performed in a buffer designated “TGMD”, prepared from Tyrode's buffer to which the following were added (g/l): gelatin (1.0), magnesium (0.25; 1 mM), and DNase (0.01). The buffer designated “PAGCM” was a Pipes-albumin (0.003%) buffer containing (g/l): glucose (1.0), CaCl2.2H2O, 0.14 (1 mM); and MgCl2.6H2O, 0.2 (1 mM).
(§2) Mast cells were dispersed from human lung by methods previously reported (Schulman et al., J. Immunol. 29:2662-2667 (1982); Schulman et al., J. Immunol. 131:1936-1941 (1983)). Briefly, lung specimens obtained at thoracotomy for bronchogenic carcinoma were finely minced and extensively washed in divalent cation-free Tyrode's buffer. Fragments were briefly incubated in a mixture of pronase (2 mg/ml) and chymopapain (0.5 mg/ml). Freed cells were harvested through Nytex nylon cloth (150 microns pore size). Residual fragments were further exposed to a mixture of collagenase (1 mg/ml) and elastase (10 units/ml). All incubations and washes were performed at 37° C.; recovered cells were immediately washed three times in large volumes of TGMD. Mast cell purities in these human lung cell suspensions ranged from 1-8% as determined by alcian blue staining (Gilbert et al., Blood 46:279-285 (1975)). Lung mast cells were further purified, by counter-current elutriation, using previously reported methods (Schulman et al., J. Immunol. 131:1936-1941 (1983)). Mast cells were purified (80->98%) by flotation of enriched elutriation fractions through a discontinuous Percoll gradient (Ishizaka et al., J. Immunol. 130:2357-2362 (1983)). Further mast cell purification was accomplished by immunomagnetic negative selection against CD2, CD3, CD4, CD8, CD14, CD16, CD21 and HLADR to ensure against contamination by T cells, B calls, NK cells, monocytes, and dendritic cells prior to mast cell stimulation using previously described methods (Jaffe et al., Am. J. Respir. Cell. Mol. Biol. 13:665-675 (1995); Jaffe et al., Am. J. Respir. Cell. Mol. Biol. 15:473-481 (1996)).
The concentrations of anti-IgE produce 30-70% of maximal release. Twenty minutes following activation, cells were rapidly pelleted and supernatants removed for histamine analysis. Histamine release was expressed as the net histamine released divided by the total histamine content×100%. The total cellular histamine content was determined following cell lysis with 2% perchloric acid. Spontaneous histamine release was always <2% of cellular histamine and generally <1%. Histamine measurements were performed using the automated spectrofluorometric method of Technicon (Tarrytown, N.Y.). Variations between replicates were consistently <5%. All assays were run in duplicates.

[2] = target: human P2Y1 receptor (Homo sapiens, UniProt P47900); conditions: cited from earlier work
Chain of human P2Y1 receptor (P47900 whole entry): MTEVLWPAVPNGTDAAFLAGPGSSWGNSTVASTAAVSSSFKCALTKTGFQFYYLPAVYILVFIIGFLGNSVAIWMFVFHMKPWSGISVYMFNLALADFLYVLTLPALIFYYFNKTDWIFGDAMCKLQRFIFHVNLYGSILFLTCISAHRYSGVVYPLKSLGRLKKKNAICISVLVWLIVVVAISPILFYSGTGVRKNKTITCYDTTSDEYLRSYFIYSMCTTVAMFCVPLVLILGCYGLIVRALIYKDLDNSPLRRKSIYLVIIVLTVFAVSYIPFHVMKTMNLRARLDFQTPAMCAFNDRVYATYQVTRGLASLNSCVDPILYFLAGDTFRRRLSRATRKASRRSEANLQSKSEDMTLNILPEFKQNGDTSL

[3] = test system: human lung mast cells (HLMC); experiment: Direct induction of histamine release from HLMC without anti-IgE; type: cell-based; conditions: for direct induction of histamine release: no anti-IgE
Method: as §1
as §2, with “Further mast cell purification was accomplished by immunomagnetic negative selection against CD2, CD3, CD4, CD8, CD14, CD16, CD21 and HLADR to ensure against contamination by T cells, B calls, NK cells, monocytes, and dendritic cells prior to mast cell stimulation using previously described methods (Jaffe et al., Am. J. Respir. Cell. Mol. Biol. 13:665-675 (1995); Jaffe et al., Am. J. Respir. Cell. Mol. Biol. 15:473-481 (1996)).” left out
The concentrations of anti-IgE produce 30-70% of maximal release. […] Histamine release was expressed as the net histamine released divided by the total histamine content×100%. The total cellular histamine content was determined following cell lysis with 2% perchloric acid. […]

[4] = test system: HLMC; experiment: Functional ectoATPase assay of HLMC (HPLC detection of purine compounds); type: in vitro ADME, human; conditions: 10^−4M ATP, anti-IgE activated HLMC, 15 + 20 min incubation, n=3
Method: The supernatants were separated from the cells by centrifugation at 14,000-×g for 5 minutes and kept at −20° C. until analyzed by HPLC. The method of Stocci et al., Anal. Biochem. 167:181-90 (1987) was used for the detection of the purine compounds. The HPLC system consisted of Waters 600E controller, Waters Novapak 4 μm 3.9×150 mm C18 column, and a 990 photodiode array detector. The solvent consisted of 0.1 mM KH2PO4, 8 mM tetrabutylammonium hydrogen sulfate (TAHS) pH 6.0 (buffer A), and 0.1 mM KH2PO4, 8 mM TAHS pH 6.0 with 30% (v/v) methanol (buffer B). The flow rate was 1 ml/min. with the following gradient program: 100% A to 2.5 min., linear gradient to 20% B at 5 min, to 40% B at 10 min., to 100% at 13 min., then 100% B to 30 min. 100 μl of supernatant (neat) was injected and the separation monitored at 254 nm over the 30 minute run time. The ATP peak areas were calculated and compared among the conditions. […] The data are the result of three experiments.

[5] = test system: rat peritoneal mast cells; conditions: cited from earlier work
[6] = Example 3, control 9.9±3.1%, n=10
[7] = Example 4, 10^−4M (equimolar), control 14.9±3.9%, six experiments, p<0.05
[8] = Example 5, 10^−4M, control 10.3±3.0%, n=6
[9] = Example 5, 10^−5M, control 10.3±3.0%, n=6
[10] = Example 3, control 9.9±3.1%, ten experiments

`CSc1nc(N)c2ncn([C@@H]3O[C@H](COP(=O)(O)OP(=O)(O)OP(=O)(O)O)[C@@H](O)[C@H]3O)c2n1` [2-mSATP, 2methylthio-ATP] gave an anti-IgE-induced histamine release [1, 6] of 14.3±3.9%.
For `Nc1ncnc2c1ncn2[C@@H]1O[C@H](COP(=O)(O)O)[C@@H](O)[C@H]1OP(=O)(O)O` [A2P5P, adenosine-2′-phosphate-5′-phosphate], the “agonist activity at the human P2Y1 receptor” value (shortened to “agonist activity”) [2] is given as “Partial agonists”.
For `Nc1ncnc2c1ncn2[C@@H]1O[C@H](COP(=O)(O)O)[C@@H](OP(=O)(O)O)[C@H]1O` [A3P5P, adenosine-3′-phosphate-5′-phosphate], the “agonist activity” value [2] is given as “devoid of agonist activity”.
In the case of `Nc1ncnc2c1ncn2[C@@H]1O[C@H](COP(=O)(O)OS(=O)(=O)O)[C@@H](OP(=O)(O)O)[C@H]1O` [A3P5PS, adenosine-3′-phosphate-5′-phosphosulfate], the “agonist activity” value [2] is listed as “devoid of agonist activity”.
For `Nc1ncnc2c1ncn2[C@@H]1O[C@H](COP(=O)(O)OP(=O)(O)OP(=O)(O)O)[C@@H](O)[C@H]1O` [ATP, adenosine 5′-triphosphate], the anti-IgE-induced histamine release ([1]; 10^−3M, n=9, control 10.1+3.4%, not statistically significant (p>0.05)) was 14.0+2.4%, the “effect on anti-IgE-induced histamine release” value ([1]; 10^−4M, 9 of 9 experiments, control 10.1+3.4%, p<0.05) was “enhanced histamine release” and the anti-IgE-induced histamine release ([1]; 10^−4M, high responders, control 24.2±4.2%, n=7) was 32.9±4.5%. The “percent enhancement of anti-IgE-induced histamine release” value ([1]; 10^−4M, high responders, n=7) was 35%, the anti-IgE-induced histamine release ([1]; 10^−4M, low responders (<3%), control 1.8±0.4%, n=6) was 13.5±2.7% and the “percent enhancement of anti-IgE-induced histamine release” value ([1]; 10^−4M, low responders, n=6) was 750%. The “enhancement of anti-IgE-induced histamine release (absolute)” value ([1]; 10^−4M, lowest and highest anti-IgE responsive preparations) was 8-10%, the “effect on anti-IgE-induced histamine release” value ([1]; 10^−5M, 9 of 9 experiments, control 10.1+3.4%, p<0.05) was “enhanced histamine release” and the “effect on anti-IgE-induced histamine release” value ([1]; 10^−6M, six preparations) was “no effects”. The anti-IgE-induced histamine release ([1]; ATP 10^−4M, 20 anti-IgE-responsive preparations, control 10.9+2.7%, p<0.01) was 19.2+2.9%, the anti-IgE-induced histamine release [1, 6] was 17.7±4.1% and the anti-IgE-induced histamine release [1, 7] was 23.0±4.7%. The anti-IgE-induced histamine release [1, 8] was “significantly enhanced”, the anti-IgE-induced histamine release [1, 9] was “significantly enhanced” and the anti-IgE-induced histamine release ([1]; Example 9, ATP 10^4−M, control 11.2±5.3%, four experiments) was 15.7±7.1%. The “effect in preparations that failed to respond to anti-IgE alone” value ([1]; preincubation 10^−6-10^−3M, 3/23 preparations) was “without effect”, the “direct induction of histamine release” value ([3]; ATP 10^−7M-10^−3M, n=23) was “did not directly induce histamine release” and the “histamine release on ATP challenge” value ([3]; Ca^2+-free and Mg^2+-free media, results not shown) was “failed to provoke histamine release”. For the same compound, the “area under the ATP peak vs control (ATP alone without HLMC)” value [4] was “no noticeable decrease”, the “concentration of maximum mediator secretion” value ([5]; depressed by Ca^2+ and Mg^2+) was 2 µM and the “concentration that inhibits mediator release” value ([5]; in the presence of millimolar Ca^2+) was “above 3 μM”.
With `Cc1nc(N=Nc2ccc(S(=O)(=O)O)cc2S(=O)(=O)O)c(COP(=O)(O)O)c(C=O)c1O` [PPADS, pyridzalphosphate-6-azophenyl-2′,4′-disulfonic acid] the “anti-IgE-induced histamine release with ATP after preincubation with antagonist” value ([1]; Example 9, ATP alone 15.7±7.1%, no significant modulation) was 16.1±5.9%.
`Nc1ncnc2c1ncn2[C@@H]1O[C@H](CO)[C@@H](O)[C@H]1O` [adenosine] gave an anti-IgE-induced histamine release ([1]; Example 5, 10^−3 M, control 10.3±3.0%, n=6, p<0.05) of 5.3±1.9%, an anti-IgE-induced histamine release [1, 8] of 11.2±4.7% and an anti-IgE-induced histamine release [1, 9] of 13.4±5.6%. The “direct induction of histamine release” value ([3]; adenosine alone) was “did not directly induce histamine release”.
For `Nc1ncnc2c1ncn2[C@@H]1O[C@H](COP(=O)(O)CP(=O)(O)OP(=O)(O)O)[C@@H](O)[C@H]1O` [α,βmATP, α,βmethylene-ATP], the “effect on anti-IgE-induced histamine release” value [1, 10] is listed as “enhanced” and the “induction of mediator release” value [5] is listed as “inactive”.
For `Nc1ncnc2c1ncn2[C@@H]1O[C@H](COP(=O)(O)OP(=O)(O)CP(=O)(O)O)[C@@H](O)[C@H]1O` [β,γmATP, β,γmethylene-ATP], the “effect on anti-IgE-induced histamine release” value [1, 10] is given as “enhanced” and the “induction of mediator release” value [5] is given as “inactive”.
For adenosine-2′-phosphate-5′-phosphoribose, the “agonist activity” value [2] is listed as “Partial agonists”.
In the case of uracil triphosphate [UTP], the anti-IgE-induced histamine release [1, 7] is listed as 19.2±5.0% and the “achieving mediator release in comparison with ATP” value ([5]; 10^−4M) is listed as “almost inactive”.
